Measured values reported in patent publication US6984640B1, “Antiparasitic artemisinin derivatives (endoperoxides)” (Bayer Aktiengesellschaft, priority 1998, dated 2006).

Legend:
[1] = test system: Plasmodium falciparum W2 strain (chloroquine resistant); assay: In vitro screening against Plasmodium falciparum, 3H-hypoxanthine incorporation, W2 strain; format: cell-based; conditions: for In vitro activity: (IC10) / In vitro activity: IC50 / In vitro activity: IC90: 66 hours incubation
Source text: (§1) Two parasite strains—W2 resistant to chloroquine, and D6 sensitive to chloroquine but resistant to mefloquine were used. In Table IV below, the best compounds should show no cross resistance between the two strains.
(§2) The assay relies on incorporation of radiolabelled hypoxanthine by the parasite and inhibition of incorporation is attributed to activity of known or candidate antimalarial drugs. For each assay, proven antimalarials such as chloroquine, mefloquine, quinine, artemisinin and pyrimethamine were used as controls. The incubation period was 66 hours, and the starting parasitemia was 0.2% with 1% hematocrit. The medium was an RPMI-1640 culture with no folate or p-aminobenzoic acid. Albumax rather than 10% normal heat inactivated human plasma was used as, with Albumax, less protein binding is observed, and compounds elicit slightly higher activities in this model. If a compound was submitted with no prior knowledge of activity, it was dissolved directly in dimethyl sulphoxide (DMSO), and diluted 400 fold with complete culture medium. The unknown compound was started at a maximum concentration of 50,000 ng ml^−1 and sequentially diluted 2-fold for 11 times to give a concentration range of […]. These dilutions were performed automatically by a Biomek 1000 Liquid Handling System in 96-well microtiter plates. The diluted drugs were then transferred to test plates, 200 μl of parasitized erythrocytes were added, and incubated at 37° C. in a controlled environment of 5% CO2, 5% O2 and 90% N2. After 42 hours, 25 μl of ^3H-hypoxanthine was added, and the plates incubated for an additional 24 hours. After 66 hours, the plates were frozen at −70° C. to lyse the red cells, and then thawed and harvested onto glass fiber filter mats in a 96-well harvester. The filter mats were then counted in a scintillation counter. For each drug, the concentration response profile was determined and 50%, 90% and 10% inhibitory concentrations (IC50 IC90 and IC10) were determined by a non-linear logistic dose response analysis program.
(§3) A prescreen format can be used wherein a 3-dilution assay may be used to determine activity at high medium or low concentrations. The concentrations were selected as 50,000, 500 and 50 ng ml^−1. These were performed in duplicate on a 96-well format plate with 14 test compounds and one known (standard) compound per plate. The system was automated with a Biomek diluter for mixing and diluting the drugs, and adding drugs and parasites to a test plate. In the prescreen format, if the ANALYSIS FIELD (AP) has a “<”, then the compound was “very active” and the IC values are most likely to be below the last dilution value (in nanograms/ml), which is listed next to AF. In most cases, these compounds were run again at lower starting concentration to determine the true IC value. If the AF has a “>”, then the IC value is greater than the prescreen dilution value; thus “AF>250” means that the IC value is greater than 250 ng ml^−1 and no further screening is carried out. In such cases, values of 0.00 are entered for IC values.

Eimeria tenella = assay: Screening against Eimeria tenella cell cultures in vitro (chick kidney cells); format: cell-based; design: key: 3 = very active no intact parasites/well; 2 = active 1-6 parasites per well; 1 = weakly active up to 1 intact schizont/optical field of vision; 0 = inactive >1 intact schizont/optical field of vision; T = cytotoxic host cells are dead; conditions: day 5 post infection
Experimental: Cells from kidneys of 19 day old chicks are cultured as monolayers in 96-well plates (Falcon 3872) in a medium of Hanks lactalbumine hydrolysate, 5% fetal calf serum, 1% glutamine and 1% non-essential amino acids. After two days at 42° C. under 5% CO2, the culture was infected with excised sporozoites of Eimeria tenella at about […] per well. Test compounds were dissolved in DKSO and diluted with culture medium to a maximum end concentration of 10 μg ml^−1. The dilution steps were 1:10. On day 5 post infection, the cultures were evaluated under a microscope at 100-fold magnification and the condition of the host cells and the amount of intact schizonts and free merozoites was determined.

[2] = test system: Plasmodium falciparum D6 strain (chloroquine sensitive); assay: In vitro screening against Plasmodium falciparum, 3H-hypoxanthine incorporation, D6 strain; format: cell-based; conditions: for In vitro activity: (IC10) / In vitro activity: IC50 / In vitro activity: IC90: 66 hours incubation
Source text: as §1, §2, §3

Neospora caninum = assay: Screening against Neospora caninum cell cultures in vitro (VERO or ED host cells); format: cell-based; design: key: 0 = no effect monolayer completely destroyed; 1 = weak effect monolayer partly destroyed, parasite clumps can be seen; 2 = full effect monolayer intact, no tachyzoites observable; T = cytotoxic cells are dead, lysed; conditions: microscopic evaluation 4 days after treatment
Experimental: Screening was conducted in 96-well plates (Falcon 3872). A monolayer of host cells (VERO or ED) were placed on a cell culture plate. Non-infected mono-layers of cells were cultured in two 50 ml tissue culture bottles ([…] cell culture area). The cell layer was detached with trypsin-EDTA (5 ml. Gibco 45300-019) in a CO2-culture cupboard at 37° C. After 10 minutes, most of the cells were detached. The cells were transferred with a 5 ml pipette into a 50 ml centrifuge tube (Greiner, B769331) containing about 1 ml warmed fetal calf serum. After centrifugation for 5 minutes at 1500 rpm (Varifuge 3.0, Heraeus), the liquid was removed and the cell pellet suspended in RPMI medium (100 ml, 95% RPMI 1640, 2% FCS, 1% L-glutamine, 1% sodium hydrogen carbonate, 1% penicillin/streptomycin). The cell suspension was pipetted into six 96-well plates at 150 μl per well. The coated cell culture plates were placed in an incubation cupboard at 37° C. under 5% CO2 for 24 hours. The cells were then infected with Neospora caninum tachyzoites at a concentration of 48,000 tachyzoites per well. This was followed by incubation at 37° C. under 5% CO2 for 24 hours.
The test compounds (0.5-1.5 mg) were weighed into 1.5 ml eppendorf vessels and dissolved in 1 ml dimethyl sulphoxide, corresponding to a dilution of about 1×10^−3 g ml^−1. The medium used for further dilution consisted of 87% RPMI 1640, 10% FCS, 1% L-glutamine, 1% sodium hydrogen carbonate, 1% penicillin/streptomycin. In the first screening, concentrations of […], […] and 10^−7 g ml^−1 were used. The diluted preparations were then transferred to the cell culture plates at a volume of 150 μl per well after 24 hour infection with Neospora caninum. For the first row, untreated medium was used; this row contained infected and uninfected cells as controls. The cell plate was incubated at 37° C. under 5% CO2 for 5 days. Microscopic evaluation was conducted 4 days after treatment and 5 days after infection at a magnification of 25×10 in an inverse microscope according to the following evaluation scheme.

Neospora = conditions: administered via drinking water; cited from earlier work
[3] = prescreen 3-dilution assay, 0.00 entered for IC values

SMILES	In vitro activity: (IC10) [1] [ng/mL]	In vitro activity: IC50 [1] [ng/mL]	In vitro activity: IC90 [1] [ng/mL]	Effectiveness rating against Eimeria tenella (Eimeria tenella; Dose 10^−5 g/ml)	Effectiveness rating against Eimeria tenella (Eimeria tenella; Dose 10^−6 g/ml)	Effectiveness rating against Eimeria tenella (Eimeria tenella; Dose 10^−7 g/ml)	Effectiveness rating against Eimeria tenella (Eimeria tenella; Dose 10^−8 g/ml)	In vitro activity: (IC10) [2] [ng/mL]	In vitro activity: IC50 [2] [ng/mL]	In vitro activity: IC90 [2] [ng/mL]	Evaluation of effect against Neospora caninum (Neospora caninum; Dose 10^−5 g/ml)	Evaluation of effect against Neospora caninum (Neospora caninum; Dose 10^−6 g/ml)	Evaluation of effect against Neospora caninum (Neospora caninum; Dose 10^−7 g/ml)	Evaluation of effect against Neospora caninum (Neospora caninum; Dose 10^−8 g/ml)	ANALYSIS FIELD (AF): bound on the IC values in prescreen format [1, 3]	ANALYSIS FIELD (AF): bound on the IC values in prescreen format [2, 3]	efficacy against neosporosis in experimentally infected mice (Neospora)
CC1CCC2C(C)C(Nc3ccc(Br)cc3)OC3OC4(C)CCC1C32OO4 (stereo not drawn) [Example 18]	0.17	0.23	0.33	T	T	1 (1 = weakly active up to 1 intact schizont/optical field of vision)	0 (0 = inactive >1 intact schizont/optical field of vision)	0.09	0.28	0.82	2	1	0	–	–	–	–
CC1CCC2C(C)C(Nc3ccc(I)cc3)OC3OC4(C)CCC1C32OO4 (stereo not drawn) [Example 19]	0.25	0.33	0.43	T	T	1 (1 = weakly active up to 1 intact schizont/optical field of vision)	0 (0 = inactive >1 intact schizont/optical field of vision)	0.19	0.39	0.80	T	0	–	–	–	–	–
CC1CCC2C(C)C(Nc3ccc(-c4ccccc4)cc3)OC3OC4(C)CCC1C32OO4 (stereo not drawn) [Example 20]	2.64	5.81	12.77	T	–	0 (0 = inactive >1 intact schizont/optical field of vision)	–	6.84	9.40	12.93	–	1	1	0	–	–	–
CC1CCC2C(C)C(NCc3cc(C(F)(F)F)cc(C(F)(F)F)c3)OC3OC4(C)CCC1C32OO4 (stereo not drawn) [Example 23]	–	–	–	T	–	0 (0 = inactive >1 intact schizont/optical field of vision)	–	–	–	–	–	0	–	–	0.00; 0.00; AF > 250 ng/ml	0.00; 0.00; AF > 250 ng/ml	–
CCCNC1OC2OC3(C)CCC4C(C)CCC(C1C)C24OO3 (stereo not drawn) [Example 24]	0.46	0.77	1.30	2 (2 = active 1-6 parasites per well)	1 (1 = weakly active up to 1 intact schizont/optical field of vision)	0 (0 = inactive >1 intact schizont/optical field of vision)	–	0.65	1.17	2.10	1	0	–	–	–	–	–
CC1CCC2C(C)C(N3CCOCC3)OC3OC4(C)CCC1C32OO4 (stereo not drawn) [Example 25]	0.07	0.11	0.17	2 (2 = active 1-6 parasites per well)	1 (1 = weakly active up to 1 intact schizont/optical field of vision)	1 (1 = weakly active up to 1 intact schizont/optical field of vision)	0 (0 = inactive >1 intact schizont/optical field of vision)	0.02	0.09	0.35	–	1	1	0	–	–	–
Nc1ccc(S(=O)(=O)Nc2ncccn2)cc1 [Sulfadiazin]	–	–	–	–	–	–	–	–	–	–	–	–	–	–	–	–	effective in experimentally infected mice, only if the treatment was prophylactic
